Experimental findings from ChEMBL document CHEMBL4130363, “Synthesis and pharmacological evaluation of benzamide derivatives as potent and selective sigma-1 protein ligands” (Eur J Med Chem, 2017) are described below.

The target of data set [1] is T1, Adenosine receptor A3 (Homo sapiens) (UniProt P0DMS8).
T1 sequence (whole entry): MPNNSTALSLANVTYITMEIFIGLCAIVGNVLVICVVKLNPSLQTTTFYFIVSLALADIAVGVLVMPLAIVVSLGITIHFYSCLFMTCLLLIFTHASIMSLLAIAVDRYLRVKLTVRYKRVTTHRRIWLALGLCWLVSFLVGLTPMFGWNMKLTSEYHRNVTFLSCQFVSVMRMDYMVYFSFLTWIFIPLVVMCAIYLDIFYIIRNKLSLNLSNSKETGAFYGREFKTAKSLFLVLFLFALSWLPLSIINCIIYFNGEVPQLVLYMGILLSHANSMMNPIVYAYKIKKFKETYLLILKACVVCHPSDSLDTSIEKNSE
The data set can be described thus: Antagonist activity at recombinant human adenosine A3 receptor assessed as inhibition of agonist-induced cAMP induction at 10 uM by HTRF assay. In kind it is functional. On the technique in general: In TR-FRET formats the signal depends on donor and acceptor labels being close together.

Data set [2] deals with T2, Adenosine receptor A1 (Homo sapiens) (UniProt P30542).
T2 sequence (whole entry): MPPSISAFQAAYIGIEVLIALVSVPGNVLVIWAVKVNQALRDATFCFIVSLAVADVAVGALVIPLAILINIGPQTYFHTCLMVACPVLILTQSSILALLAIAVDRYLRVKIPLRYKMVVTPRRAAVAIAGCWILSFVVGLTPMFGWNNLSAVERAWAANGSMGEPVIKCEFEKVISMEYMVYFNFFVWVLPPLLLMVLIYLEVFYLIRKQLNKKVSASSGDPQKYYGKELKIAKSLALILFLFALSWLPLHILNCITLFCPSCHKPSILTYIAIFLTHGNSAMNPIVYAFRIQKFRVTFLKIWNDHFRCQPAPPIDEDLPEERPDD
Nature of the data set: Antagonist activity at recombinant human adenosine A1 receptor assessed as inhibition of agonist-induced cAMP induction at 10 uM by HTRF assay. In kind it is functional.

A short description of data set [3]: Metabolic stability in human liver microsomes by LC/MS analysis. In kind it is ADME, microsome. Background: Microsomes from liver hold many membrane-bound enzymes, among them those of drug oxidation.
Data set [4] in a line: n-Octanol-PBS buffer distribution coefficient, log D of the compound at pH 7.4. It is filed as physicochemical.
A short description of data set [5]: Aqueous solubility of the compound in PBS buffer at pH 7.8. It is filed as physicochemical.
The target of data set [6] is Sigma non-opioid intracellular receptor 1 (Homo sapiens, UniProt Q99720). The data set can be described thus: Displacement of [3H](+)-pentazocine from S1R in human Jurkat cell membranes after 2 hrs by liquid scintillation counting.
Sigma non-opioid intracellular receptor 1, sequence (Q99720 whole entry): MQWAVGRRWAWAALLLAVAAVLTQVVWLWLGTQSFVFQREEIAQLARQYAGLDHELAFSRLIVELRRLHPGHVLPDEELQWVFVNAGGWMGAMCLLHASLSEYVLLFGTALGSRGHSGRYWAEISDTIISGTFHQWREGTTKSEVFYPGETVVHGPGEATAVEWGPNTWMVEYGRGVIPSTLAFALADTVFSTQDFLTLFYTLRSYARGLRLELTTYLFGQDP
The target of data set [7] is Sigma intracellular receptor 2 (Homo sapiens, UniProt Q5BJF2). Nature of the data set: Displacement of [3H]-DTG from S2R in human Jurkat cell membranes after 1 hr in presence of (+)-pentazocine by liquid scintillation counting.
Sigma intracellular receptor 2, sequence (Q5BJF2 whole entry): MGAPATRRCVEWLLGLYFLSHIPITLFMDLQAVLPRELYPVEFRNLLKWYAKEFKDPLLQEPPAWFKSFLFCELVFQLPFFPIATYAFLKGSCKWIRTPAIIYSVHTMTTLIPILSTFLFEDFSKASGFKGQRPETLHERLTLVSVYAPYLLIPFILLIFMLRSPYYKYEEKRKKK

Molecules are shown by their SMILES. In brackets after ≈: the same amount, converted by molar mass.

What is called inhibition is the drop in the measured response relative to a control, in per cent. As for `CCCc1ccc(C(=O)NCCCN(C)Cc2ccccc2)cc1`, the inhibition is 8% in data set [1] and -9% in data set [2].

In general, logD refers to the decadic logarithm of the distribution of all forms, ionised or not, between an organic phase and buffer at a given pH. A low value points to a more hydrophilic compound. The solubility is the dissolved amount per volume that the medium holds. `CN(CCCNC(=O)c1ccc(Cl)cc1)Cc1ccccc1`: the Stability in data set [3] was 77%. In data set [1], the inhibition was determined as 16%. The logD in data set [4] worked out at 2.51. The concentration in solution in data set [5] (solubility) was 173 µM (≈ 54.8 µg/mL).

Take `CN(CCCNC(=O)c1ccc(Br)cc1)Cc1ccccc1`: in data set [1], the inhibition worked out at 24%.

Regarding `COc1cccc(C(=O)NCCCN(C)Cc2ccccc2)c1`, the inhibition in data set [2] is -2%.

With `CN(CCCNC(=O)c1ccc(C(F)(F)F)cc1)Cc1ccccc1`, in data set [1], the inhibition came out at 18%.

Turning to `CN(CCCNC(=O)c1ccc([N+](=O)[O-])cc1)Cc1ccccc1`, in data set [1], the inhibition is -7%.

As to `CN(CCNC(=O)c1ccc(C#N)cc1)Cc1ccccc1`, the inhibition in data set [1] was -6%; in data set [2], 2%.

Consider `COc1ccc(C(=O)NCCCN(C)Cc2ccccc2)cc1`, for which, in data set [1], the inhibition amounted to 12%.

A word on the Ki: it is the dissociation constant of the complex between target and ligand, obtained from inhibition or displacement. As to `CN(CCNC(=O)c1ccc(Cl)cc1)Cc1ccccc1`, the values for the Ki in data set [6] and in data set [7] were 3.6 nM and 850 nM, respectively. Besides, the inhibition in data set [1] was -1%.

As to `CN(CCCNC(=O)c1ccc(Cl)cc1)CCc1ccccc1`, the inhibition is 10% in data set [1] and -10% in data set [2].

As for `CN(CCNC(=O)c1ccc([N+](=O)[O-])cc1)Cc1ccccc1`, in data set [1], the inhibition worked out at 5%.
